One series concerns the target factor Xa, human (Homo sapiens, UniProt P00742). In words: Inhibition of factor Xa. The format is biochemical. The source says: The inhibition of factor Xa by the compounds according to the invention and the measurement of the anticoagulant and antithrombotic activity can be determined by conventional in-vitro or in-vivo methods. A suitable method is described, for example, by J. Hauptmann et al. in Thrombosis and Haemostasis 1990, 63, 220-223.
The inhibition of factor Xa can be measured, for example, by the method of T. Hara et al. in Thromb. Haemostas. 1994, 71, 314-319.

Another series deals with TF/VIIa (Homo sapiens, UniProt P08709). In words: Inhibition of TF/VIIa. The format is biochemical. The source says: The inhibition of factor VIIa by the compounds according to the invention and the measurement of the anticoagulant and antithrombotic activity can be determined by conventional in-vitro or in-vivo methods. A conventional method for the measurement of the inhibition of factor VIIa is described, for example, by H. F. Ronning et al. in Thrombosis Research 1996, 84, 73-81.
TF/VIIa, sequence (P08709 213-466 limits assumed): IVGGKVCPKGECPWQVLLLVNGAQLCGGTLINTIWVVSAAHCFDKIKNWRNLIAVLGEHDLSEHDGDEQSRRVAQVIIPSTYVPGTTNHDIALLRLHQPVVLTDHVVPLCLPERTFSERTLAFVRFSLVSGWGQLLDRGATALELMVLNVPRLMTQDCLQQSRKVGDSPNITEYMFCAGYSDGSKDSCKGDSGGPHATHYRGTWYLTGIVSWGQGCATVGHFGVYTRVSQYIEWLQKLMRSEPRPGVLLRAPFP
TF/VIIa, sequence (P08709 61-212 limits assumed): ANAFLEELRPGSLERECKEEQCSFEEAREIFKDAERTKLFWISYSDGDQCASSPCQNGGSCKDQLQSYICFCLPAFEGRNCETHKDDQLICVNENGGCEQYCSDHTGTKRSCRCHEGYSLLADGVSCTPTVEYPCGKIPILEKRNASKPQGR
TF/VIIa, sequence (P13726 33-295 partner): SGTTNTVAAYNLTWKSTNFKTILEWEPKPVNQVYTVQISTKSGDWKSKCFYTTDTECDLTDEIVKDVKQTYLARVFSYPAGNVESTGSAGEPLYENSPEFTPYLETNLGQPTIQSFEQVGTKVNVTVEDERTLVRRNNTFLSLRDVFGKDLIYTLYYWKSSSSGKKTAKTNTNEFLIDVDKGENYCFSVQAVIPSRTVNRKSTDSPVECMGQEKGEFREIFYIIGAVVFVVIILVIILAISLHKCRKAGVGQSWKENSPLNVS

factor Xa, human, sequence (P00742 235-488 limits assumed): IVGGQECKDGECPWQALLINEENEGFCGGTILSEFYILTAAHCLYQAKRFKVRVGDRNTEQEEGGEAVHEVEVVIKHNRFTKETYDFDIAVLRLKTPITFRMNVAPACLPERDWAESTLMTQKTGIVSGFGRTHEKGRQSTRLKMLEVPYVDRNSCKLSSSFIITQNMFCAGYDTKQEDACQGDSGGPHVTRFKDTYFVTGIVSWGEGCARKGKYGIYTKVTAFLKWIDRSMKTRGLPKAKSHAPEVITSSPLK
factor Xa, human, sequence (P00742 41-179 limits assumed): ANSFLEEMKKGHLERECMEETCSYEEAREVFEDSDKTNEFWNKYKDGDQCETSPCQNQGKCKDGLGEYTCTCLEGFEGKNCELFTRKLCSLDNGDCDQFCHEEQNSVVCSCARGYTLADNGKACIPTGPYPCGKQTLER

The IC50 is the concentration that inhibits the measured activity by half. High values mean weaker potency, low ones greater potency. In general, melting point refers to the temperature of the solid-liquid transition. Consider `CCCN(Cc1cccc(C(=N)N)c1)C(=O)Oc1ccc(-c2ccccc2S(N)(=O)=O)cc1` [Example 2.3, 2′-aminosulfonylbiphenyl-4-yl (3-amidinobenzyl)propylcarbamate], for which the melting point was in the range of 119 to 120 °C. On factor Xa, human, the midpoint of inhibition, the IC50, lay at 450 nM. Moreover, the IC50 against TF/VIIa was 350 nM.

As to `CCCN(Cc1cccc(C(=N)N)c1)C(=O)Oc1ccc(-c2ccccc2S(C)(=O)=O)cc1` [Example 3.3, 2′-methylsulfonylbiphenyl-4-yl (3-amidinobenzyl)propylcarbamate], the concentration for half-maximal inhibition (IC50) against factor Xa, human is 340 nM; against TF/VIIa it was 130 nM.

(Values after patent publication US20030199698A1, “Carbamic acid esters as inhibitors of factor xa” (priority 2000, published 2003).)
